Experiments:
Type in all cases: in vivo
MSA mice (tg+3NP) [1] = experiment: Stride length test in MSA mouse model; details: high dose 180 μmol/kg p.o. twice daily, FIG. 3
Method: (§1) A total of 30 (PLP)-α-synuclein transgenic mice were used. Animals were housed at 12/12 hours dark/light cycle with free access to food and water in the animal facility of the Innsbruck Medical University. All experiments were performed in accordance with the Austrian law and after permission for animal experiments of the Federal Ministry for Education, Science, and Culture of Austria.
(§2) Low dose group (n=10) MSA mice (tg+3NP) treated with 1-(2-Isopropoxyethyl)-2-thioxo-1,2,3,5-tetrahydro-pyrrolo[3,2-d]pyrimidin-4-one (Compound I; prepared by AstraZeneca), 2×6 μmol/kg p.o.
(§3) High dose group (n=10) MSA mice (tg+3NP) treated with Compound I (prepared by AstraZeneca), 2×180 μmol/kg, p.o.
(§4) 1-(2-Isopropoxyethyl)-2-thioxo-1,2,3,5-tetrahydro-pyrrolo[3,2-d]pyrimidin-4-one (Compound I treatment) was started one week prior to the first 3NP intoxication and stopped three weeks after the first 3NP intoxication (see 3NP intoxication protocol below). […]
The stride length of the forelimbs and hindlimbs of the mice was measured after a habituation to the test for 3 days before its performance according to Fernagut et al. (Fernagut P O. et al. Neuroscience. 2002; 114:1005-17) with slight modification. […] After three runs, the stride length of the hindlimbs on each side was measured, excluding the beginning (7 cm) and the end (7 cm) of the run. The mean stride length for each limb was determined.

MSA mice (tg+3NP) [2] = experiment: Microglial activation (optical density) in substantia nigra and striatum of MSA mice; details: high dose 180 μmol/kg p.o. twice daily, FIG. 6
Method: as §1, §2, §3, §4
(§5) Stereology was applied using a computer-assisted image analysis system (Nikon E-800 microscope, CCD video camera, Optronics MicroFire, Goleta, USA; Stereo Investigator Software, MicroBrightField Europe e.K., Magdeburg, Germany). […] Purkinje cells were counted in a region outlined to include only the Purkinje cell layer as previously reported (German D C. et al. Neuroscience. 2001; 105:999-1005). All data were expressed as mean value±SEM. […]

MSA mice (tg+3NP) [3] = experiment: Open field activity (Flex Field Activity System) in MSA mouse model; details: high dose 180 μmol/kg p.o. twice daily, FIG. 2
Method: as §1, §2, §3
1-(2-Isopropoxyethyl)-2-thioxo-1,2,3,5-tetrahydro-pyrrolo[3,2-d]pyrimidin-4-one (Compound I treatment) was started one week prior to the first 3NP intoxication and stopped three weeks after the first 3NP intoxication (see 3NP intoxication protocol below). Animals underwent behavioral tests during week 3-4 after the beginning of the experiment. On day 28 animals were perfused under deep thiopental anesthesia and the brains were collected for histopathological analysis of neuronal loss and gliosis. […]

MSA mice (tg+3NP) [4] = experiment: Neuropathology: immunohistochemistry and stereological neuron counts in MSA mouse model
Method: as §1, §2, §3
1-(2-Isopropoxyethyl)-2-thioxo-1,2,3,5-tetrahydro-pyrrolo[3,2-d]pyrimidin-4-one (Compound I treatment) was started one week prior to the first 3NP intoxication and stopped three weeks after the first 3NP intoxication (see 3NP intoxication protocol below). Animals underwent behavioral tests during week 3-4 after the beginning of the experiment. On day 28 animals were perfused under deep thiopental anesthesia and the brains were collected for histopathological analysis of neuronal loss and gliosis.
Mice were intoxicated chronically with 3NP with slowly increasing doses of toxin according to a previously used scheme (i.e. 4×10 mg/kg, 4×20 mg/kg, 4×40 mg/kg, 4×50 mg/kg intraperitoneal injections every 12th hour for a period of 8 days) to model MSA (Stefanova N. et al. Am. J. Pathol. 2005; 166:869-76)
The drug and vehicle (0.1 mol/L meglumine with 20% w/v hydroxypropyl-β-cyclodextrin, pH 10.8) were stored at 4° C. […]
as §5

MSA mice (tg+3NP) [5] = experiment: Motor clinical scale evaluation in MSA mouse model; details: p.o. twice daily, compared to vehicle treated mice, FIG. 1
Excerpt: A novel mouse model of MSA has been developed by inducing oxidative stress in transgenic mice with oligodendroglial α-synuclein expression (described herein). This model reproduces the cardinal neuropathological features of the disease including striatonigral degeneration (SND), olivopontocerebellar atrophy (OPCA), astrogliosis and microgliosis combined with oligodendroglial insoluble α-synuclein inclusions. Mitochondrial inhibition by 3NP in the presence of glial cytoplasmic inclusions in transgenic mice induces a selective neuronal cell death pattern typical for MSA in these animals (Stefanova N. et al. Am. J. Pathol. 2005; 166:869-76).
Thus, in the present invention, MPO inhibitors have been use to suppress MPO activity in an MSA mouse model consisting of an oligodendroglial α-SYN overexpression in transgenic mice exposed to mitochondrial inhibition by 3-nitropropionic acid (3NP). The effects were followed by application of established immunohistological and behavioral methods to evaluate the participation of MPO in the pathogenesis of MSA and the possible neuroprotective effects of in an MSA model.
A total of 30 (PLP)-α-synuclein transgenic mice were used. Animals were housed at 12/12 hours dark/light cycle with free access to food and water in the animal facility of the Innsbruck Medical University. […]

CC(C)OCCn1c(=S)[nH]c(=O)c2[nH]ccc21 [Compound I, 1-(2-Isopropoxyethyl)-2-thioxo-1,2,3,5-tetrahydro-pyrrolo[3,2-d]pyrimidin-4-one]
stride length test performance (left and right hindlimbs) (MSA mice (tg+3NP) [1]): significant improvement | microglial activation in substantia nigra and striatum (MSA mice (tg+3NP) [2]): suppression of microglial activation | flex field performance (rearing and open field activity) (MSA mice (tg+3NP) [3]): significant improvement | striatonigral degeneration (TH immunopositive cells in substantia nigra, dopaminergic terminals in striatum, striatal DARPP-32 immunoreactive neurons) (MSA mice (tg+3NP) [4]; high dose 180 μmol/kg p.o. twice daily, FIG. 4): neuroprotective | olivopontocerebellar atrophy (inferior olivary complex, pontine nuclei, Purkinje cells in the cerebellum) (MSA mice (tg+3NP) [4]; high dose 180 μmol/kg p.o. twice daily, FIG. 5): neuroprotective | neuroprotection (neurons preserved in substantia nigra pars compacta, striatum, cerebellar cortex, pontine nuclei, inferior olivary complex) (MSA mice (tg+3NP) [4]; summary of findings, dose not stated): significant neuroprotection | mean daily motor score (MSA mice (tg+3NP) [5]): significant improvement
